Test results reported in ChEMBL document CHEMBL1201862, “PubChem BioAssay data set” (2004).
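Five compound concentrations were applied to cells in 96-well plates for 48 hours; endpoints were derived by simple linear interpolation of the resulting dose-response curve. GI50: concentration for 50% inhibition of growth.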 Active and inactive are the calls of the source. No stated cut-off is given here; in the data, active = GI50 up to about 1.1 µM and inactive = higher.

Assays:
Assay in all cases: NCI tumour cell line growth inhibition, 48 h
SNB-19 = test system: SNB-19
UO-31 = test system: UO-31
HCT-116 = test system: HCT-116
HOP-18 = test system: HOP-18
EKVX = test system: EKVX
XF498 = test system: XF498
RXF 631 = test system: RXF 631
OVCAR-4 = test system: OVCAR-4
KM12 = test system: KM12
DMS-114 = test system: DMS-114
RPMI-8226 = test system: RPMI-8226
OVCAR-5 = test system: OVCAR-5
SK-OV-3 = test system: SK-OV-3
LOX IMVI = test system: LOX IMVI
Malme-3M = test system: Malme-3M
RXF 393 = test system: RXF 393
COLO 205 = test system: COLO 205
TK-10 = test system: TK-10
A498 = test system: A498
SF-295 = test system: SF-295
SF-539 = test system: SF-539
KM-20L2 = test system: KM-20L2
OVCAR-8 = test system: OVCAR-8
SK-MEL-5 = test system: SK-MEL-5
SN12C = test system: SN12C
A549 = test system: A549
CCRF-CEM = test system: CCRF-CEM
786-0 = test system: 786-0
IGROV-1 = test system: IGROV-1
M14 = test system: M14
HCT-15 = test system: HCT-15
HL-60 = test system: HL-60
U-251 = test system: U-251
NCI-H23 = test system: NCI-H23
HOP-62 = test system: HOP-62
CAKI-1 = test system: CAKI-1
SW-620 = test system: SW-620
HOP-92 = test system: HOP-92
K562 = test system: K562
DLD-1 = test system: DLD-1
HCC 2998 = test system: HCC 2998
M19-MEL = test system: M19-MEL
UACC-62 = test system: UACC-62
LXFL 529 = test system: LXFL 529
HT-29 = test system: HT-29
OVCAR-3 = test system: OVCAR-3
NCI-H460 = test system: NCI-H460
SNB-78 = test system: SNB-78
MOLT-4 = test system: MOLT-4
ACHN = test system: ACHN
SNB-75 = test system: SNB-75
UACC-257 = test system: UACC-257
SK-MEL-2 = test system: SK-MEL-2
NCI-H226 = test system: NCI-H226
DMS-273 = test system: DMS-273
SF-268 = test system: SF-268
NCI-H522 = test system: NCI-H522
SK-MEL-28 = test system: SK-MEL-28

## CCc1c(OC(C)=O)c2c(NC3OC(COC(C)=O)C(OC(C)=O)C(OC(C)=O)C3OC(C)=O)nc(SC)nc2oc1=O (centres undefined)
SNB-19
  GI50: > 100 µM (inactive)
UO-31
  GI50: > 100 µM (inactive)
HCT-116
  GI50: > 100 µM (inactive)
HOP-18
  GI50: > 100 µM (inactive)
EKVX
  GI50: > 100 µM (inactive)
XF498
  GI50: > 100 µM (inactive)
RXF 631
  GI50: > 100 µM (inactive)
OVCAR-4
  GI50: > 100 µM (inactive)
KM12
  GI50: > 100 µM (inactive)
DMS-114
  GI50: > 100 µM (inactive)
RPMI-8226
  GI50: > 100 µM (inactive)
OVCAR-5
  GI50: > 100 µM (inactive)
SK-OV-3
  GI50: > 100 µM (inactive)
LOX IMVI
  GI50: > 100 µM (inactive)
Malme-3M
  GI50: > 100 µM (inactive)
RXF 393
  GI50: > 100 µM (inactive)
COLO 205
  GI50: > 100 µM (inactive)
TK-10
  GI50: > 100 µM (inactive)
A498
  GI50: > 100 µM (inactive)
SF-295
  GI50: > 100 µM (inactive)
SF-539
  GI50: > 100 µM (inactive)
KM-20L2
  GI50: > 100 µM (inactive)
OVCAR-8
  GI50: > 100 µM (inactive)
SK-MEL-5
  GI50: > 100 µM (inactive)
SN12C
  GI50: > 100 µM (inactive)
A549
  GI50: > 100 µM (inactive)
CCRF-CEM
  GI50: > 100 µM (inactive)
786-0
  GI50: > 100 µM (inactive)
IGROV-1
  GI50: > 100 µM (inactive)
M14
  GI50: > 100 µM (inactive)
HCT-15
  GI50: > 100 µM
HL-60
  GI50: > 100 µM (inactive)
U-251
  GI50: > 100 µM (inactive)
NCI-H23
  GI50: > 100 µM (inactive)
HOP-62
  GI50: > 100 µM (inactive)
CAKI-1
  GI50: > 100 µM (inactive)
SW-620
  GI50: > 100 µM (inactive)
HOP-92
  GI50: > 100 µM (inactive)
K562
  GI50: > 100 µM (inactive)
DLD-1
  GI50: > 100 µM (inactive)
HCC 2998
  GI50: > 100 µM (inactive)
M19-MEL
  GI50: > 100 µM (inactive)
UACC-62
  GI50: > 100 µM (inactive)
LXFL 529
  GI50: > 100 µM (inactive)
HT-29
  GI50: > 100 µM (inactive)
OVCAR-3
  GI50: > 100 µM (inactive)
NCI-H460
  GI50: > 100 µM (inactive)
SNB-78
  GI50: > 100 µM (inactive)
MOLT-4
  GI50: > 100 µM (inactive)
ACHN
  GI50: > 100 µM (inactive)
SNB-75
  GI50: > 100 µM (inactive)
UACC-257
  GI50: > 100 µM (inactive)
SK-MEL-2
  GI50: > 100 µM (inactive)
NCI-H226
  GI50: > 100 µM (inactive)

## CN1C2(c3ccccc3)c3c(-c4ccccc4)sc(-c4ccccc4)c3C1(c1ccccc1)C1C(=O)N(c3ccccc3)C(=O)C12 (centres undefined)
SNB-19
  GI50: > 100 µM (inactive)
DMS-273
  GI50: > 100 µM (inactive)
UO-31
  GI50: > 100 µM (inactive)
HCT-116
  GI50: > 100 µM (inactive)
HOP-18
  GI50: > 100 µM (inactive)
EKVX
  GI50: > 100 µM (inactive)
XF498
  GI50: > 100 µM (inactive)
RXF 631
  GI50: > 100 µM (inactive)
OVCAR-4
  GI50: > 100 µM (inactive)
KM12
  GI50: > 100 µM (inactive)
DMS-114
  GI50: > 100 µM (inactive)
RPMI-8226
  GI50: > 100 µM (inactive)
OVCAR-5
  GI50: > 100 µM (inactive)
SK-OV-3
  GI50: > 100 µM (inactive)
LOX IMVI
  GI50: > 100 µM (inactive)
Malme-3M
  GI50: > 100 µM (inactive)
RXF 393
  GI50: > 100 µM (inactive)
COLO 205
  GI50: > 100 µM (inactive)
TK-10
  GI50: > 100 µM (inactive)
A498
  GI50: > 100 µM (inactive)
SF-295
  GI50: > 100 µM (inactive)
SF-539
  GI50: > 100 µM (inactive)
KM-20L2
  GI50: > 100 µM (inactive)
OVCAR-8
  GI50: > 100 µM (inactive)
SK-MEL-5
  GI50: > 100 µM (inactive)
SN12C
  GI50: > 100 µM (inactive)
A549
  GI50: > 100 µM (inactive)
CCRF-CEM
  GI50: > 100 µM (inactive)
SF-268
  GI50: > 100 µM (inactive)
786-0
  GI50: > 100 µM (inactive)
IGROV-1
  GI50: > 100 µM (inactive)
NCI-H522
  GI50: > 100 µM (inactive)
M14
  GI50: > 100 µM (inactive)
HL-60
  GI50: > 100 µM (inactive)
U-251
  GI50: > 100 µM (inactive)
NCI-H23
  GI50: > 100 µM (inactive)
HOP-62
  GI50: > 100 µM (inactive)
CAKI-1
  GI50: > 100 µM (inactive)
SK-MEL-28
  GI50: > 100 µM (inactive)
SW-620
  GI50: > 100 µM (inactive)
HOP-92
  GI50: > 100 µM (inactive)
K562
  GI50: > 100 µM (inactive)
DLD-1
  GI50: > 100 µM (inactive)
HCC 2998
  GI50: > 100 µM (inactive)
M19-MEL
  GI50: > 100 µM (inactive)
UACC-62
  GI50: > 100 µM (inactive)
LXFL 529
  GI50: > 100 µM (inactive)
HT-29
  GI50: > 100 µM (inactive)
OVCAR-3
  GI50: > 100 µM (inactive)
NCI-H460
  GI50: > 100 µM (inactive)
SNB-78
  GI50: > 100 µM (inactive)
ACHN
  GI50: > 100 µM (inactive)
SNB-75
  GI50: > 100 µM (inactive)
UACC-257
  GI50: > 100 µM (inactive)
NCI-H226
  GI50: > 100 µM (inactive)

## O=c1ccccc2cccc(O)c12
SNB-19
  GI50: > 100 µM (inactive)
DMS-273
  GI50: > 100 µM (inactive)
HCT-116
  GI50: > 100 µM (inactive)
HOP-18
  GI50: > 100 µM (inactive)
EKVX
  GI50: 94.2 µM (inactive)
XF498
  GI50: > 100 µM (inactive)
RXF 631
  GI50: > 100 µM (inactive)
OVCAR-4
  GI50: > 100 µM (inactive)
DMS-114
  GI50: > 100 µM (inactive)
RPMI-8226
  GI50: > 100 µM (inactive)
SK-OV-3
  GI50: > 100 µM (inactive)
LOX IMVI
  GI50: > 100 µM (inactive)
RXF 393
  GI50: > 100 µM (inactive)
COLO 205
  GI50: > 100 µM (inactive)
TK-10
  GI50: > 100 µM (inactive)
A498
  GI50: > 100 µM (inactive)
SF-295
  GI50: > 100 µM (inactive)
SF-539
  GI50: > 100 µM (inactive)
KM-20L2
  GI50: > 100 µM (inactive)
OVCAR-8
  GI50: > 100 µM (inactive)
SK-MEL-5
  GI50: > 100 µM (inactive)
SN12C
  GI50: > 100 µM (inactive)
A549
  GI50: > 100 µM (inactive)
CCRF-CEM
  GI50: > 100 µM (inactive)
786-0
  GI50: > 100 µM (inactive)
IGROV-1
  GI50: > 100 µM (inactive)
M14
  GI50: > 100 µM (inactive)
HCT-15
  GI50: > 100 µM
HL-60
  GI50: > 100 µM (inactive)
U-251
  GI50: > 100 µM (inactive)
NCI-H23
  GI50: > 100 µM (inactive)
HOP-62
  GI50: > 100 µM (inactive)
CAKI-1
  GI50: > 100 µM (inactive)
SK-MEL-28
  GI50: > 100 µM (inactive)
SW-620
  GI50: > 100 µM (inactive)
HOP-92
  GI50: 84.1 µM (inactive)
K562
  GI50: > 100 µM (inactive)
DLD-1
  GI50: > 100 µM (inactive)
HCC 2998
  GI50: > 100 µM (inactive)
M19-MEL
  GI50: > 100 µM (inactive)
UACC-62
  GI50: > 100 µM (inactive)
LXFL 529
  GI50: > 100 µM (inactive)
HT-29
  GI50: > 100 µM (inactive)
OVCAR-3
  GI50: > 100 µM (inactive)
NCI-H460
  GI50: > 100 µM (inactive)
SNB-78
  GI50: > 100 µM (inactive)
MOLT-4
  GI50: > 100 µM (inactive)
ACHN
  GI50: > 100 µM (inactive)
SNB-75
  GI50: > 100 µM (inactive)
UACC-257
  GI50: > 100 µM (inactive)
